Assay results taken from patent US8377943B2, “2,4-diaminopyrimidine derivates as PTK2-inhibitors for the treatment of abnormal cell growth” (Boehringer Ingelheim International GmbH, priority 2008, dated 2013).

How the values were obtained:
[1] = target: T1, PTK2-phosphorylation at tyrosine 397 (pY397) (Homo sapiens, UniProt Q05397); test: Phospho-PTK2 (pY397) Assay in PC-3 cells; assay type: cell-based; conditions: PC-3 prostate carcinoma cells, 2 h incubation; read-out: PC3pPTK2 Y397 EC50
T1 construct: endogenous in cells; host or cells: PC-3 (ATCC CRL-1435)
T1 sequence (Q05397 whole entry): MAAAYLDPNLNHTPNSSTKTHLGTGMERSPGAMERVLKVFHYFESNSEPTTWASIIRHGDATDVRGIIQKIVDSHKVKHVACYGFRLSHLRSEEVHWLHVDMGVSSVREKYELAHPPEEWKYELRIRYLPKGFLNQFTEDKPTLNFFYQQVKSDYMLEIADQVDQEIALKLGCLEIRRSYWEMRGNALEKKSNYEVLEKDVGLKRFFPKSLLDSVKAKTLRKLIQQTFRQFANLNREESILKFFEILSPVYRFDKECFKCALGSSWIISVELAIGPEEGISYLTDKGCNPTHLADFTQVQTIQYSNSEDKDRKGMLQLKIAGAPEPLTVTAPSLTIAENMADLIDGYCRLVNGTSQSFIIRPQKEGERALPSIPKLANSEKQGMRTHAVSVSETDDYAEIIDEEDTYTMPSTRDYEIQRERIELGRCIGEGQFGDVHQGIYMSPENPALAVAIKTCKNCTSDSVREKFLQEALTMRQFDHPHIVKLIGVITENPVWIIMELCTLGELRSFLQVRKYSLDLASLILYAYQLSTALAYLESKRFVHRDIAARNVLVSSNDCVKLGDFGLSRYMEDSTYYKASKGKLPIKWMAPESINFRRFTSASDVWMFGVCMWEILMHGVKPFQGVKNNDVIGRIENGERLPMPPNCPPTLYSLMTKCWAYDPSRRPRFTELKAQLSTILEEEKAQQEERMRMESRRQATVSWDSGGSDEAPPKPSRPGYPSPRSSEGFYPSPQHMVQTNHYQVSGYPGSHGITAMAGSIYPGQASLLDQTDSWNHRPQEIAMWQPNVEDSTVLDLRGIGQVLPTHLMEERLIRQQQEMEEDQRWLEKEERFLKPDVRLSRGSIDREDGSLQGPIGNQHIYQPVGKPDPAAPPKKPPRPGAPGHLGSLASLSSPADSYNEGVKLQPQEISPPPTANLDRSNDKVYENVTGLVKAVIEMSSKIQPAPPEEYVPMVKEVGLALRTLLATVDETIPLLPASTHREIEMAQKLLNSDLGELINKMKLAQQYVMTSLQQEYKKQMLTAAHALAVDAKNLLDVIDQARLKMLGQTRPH
Procedure, shortened: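 PC-3 cells (2×10^4/well, F12K + 10% FCS) exposed to compound (about 0.8 nM–50 μM, 1% DMSO final) for 2 h at 37 °C. Then formaldehyde-fixed and immunostained with anti-pY397 PTK2 (total PTK2 control) and an HRP secondary. EC50 from sigmoidal fit with variable Hill slope.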

[2] = target: T2, PTK2 (Homo sapiens, UniProt Q05397); test: PTK2 Enzyme Test (DELFIA assay, poly-Glu-Tyr substrate); assay type: biochemical; conditions: active PTK2 enzyme, 50 μM ATP in ATP Mix, 1 h pre-incubation
T2 construct: purchased Invitrogen PV3832
T2 sequence (Q05397 whole entry): as above
Procedure, shortened: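 Active PTK2 (0.01 μg/well) pre-incubated 1 h at RT with compound, then reacted 1 h with 50 μM ATP (in ATP mix) and poly(Glu,Tyr) 4:1 substrate, 2% DMSO final, pH 7.5. Biotinylated product captured on streptavidin, detected by Eu-PY20 time-resolved fluorescence; IC50 by sigmoidal fit, variable Hill slope.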

Structure (SMILES)	EC50 [1]	IC50 [2]
COc1cc(C(=O)NC2CCN(C)CC2)c(F)cc1Nc1ncc(C(F)(F)F)c(NCc2ccc(Cl)cc2N(C)S(C)(=O)=O)n1 [Example 90]	2 nM	1 nM
Cc1ccc(CNc2nc(Nc3ccc(C(=O)N[C@H]4CC[C@H](N5CCN(CC6CC6)CC5)CC4)cc3F)ncc2C(F)(F)F)c(N(C)S(C)(=O)=O)c1 [Example 91]	2 nM	3 nM
Cc1ccc(CNc2nc(Nc3ccc(C(=O)N[C@H]4CC[C@H](N5CCOCC5)CC4)cc3F)ncc2C(F)(F)F)c(N(C)S(C)(=O)=O)c1 [Example 92]	2 nM	1 nM
COc1cc(C(=O)NC2CCN(C3COC3)CC2)c(F)cc1Nc1ncc(C(F)(F)F)c(NCc2ccc(C)cc2N(C)S(C)(=O)=O)n1 [Example 93]	2 nM	5 nM
COc1cc(C(=O)NC2CCN(C3CCOCC3)CC2)ccc1Nc1ncc(C(F)(F)F)c(NCc2ccc(Cl)cc2N(C)S(C)(=O)=O)n1 [Example 94]	2 nM	2 nM
COc1cc(C(=O)N[C@H]2CC[C@H](N3CCN(CC4CC4)CC3)CC2)ccc1Nc1ncc(C(F)(F)F)c(NCc2ccc(C)cc2N(C)S(C)(=O)=O)n1 [Example 95]	2 nM	3 nM
COc1cc(C(=O)NC2CC(N3CCN(CC4CC4)CC3)C2)ccc1Nc1ncc(C(F)(F)F)c(NCc2ccc(C)cc2N(C)S(C)(=O)=O)n1 (stereo not shown) [Example 97]	2 nM	3 nM
COc1cc(N2CCN(C3COC3)CC2)ccc1Nc1ncc(C(F)(F)F)c(NCc2ccc(F)cc2N(C)S(C)(=O)=O)n1 [Example 98]	2 nM	3 nM
COc1cc(N2CCN(C)CC2)ccc1Nc1ncc(C(F)(F)F)c(NCc2ccc(F)cc2N(C)S(C)(=O)=O)n1 [Example 99]	2 nM	1 nM
COc1cc(C(=O)NC2CCN(C)CC2)c(C)cc1Nc1ncc(C(F)(F)F)c(NCc2ccc(C)cc2N(C)S(C)(=O)=O)n1 [Example 100]	2 nM	1 nM
CCc1cc(C(=O)NC2CCN(CC)CC2)ccc1Nc1ncc(C(F)(F)F)c(NCc2ccc(C)cc2N(C)S(C)(=O)=O)n1 [Example 101]	2 nM	2 nM
COc1cc(C(=O)N[C@@H]2CCCN(C)C2)ccc1Nc1ncc(C(F)(F)F)c(NCc2ccc(C)cc2N(C)S(C)(=O)=O)n1 [Example 102]	2 nM	2 nM
COc1cc(Nc2ncc(C(F)(F)F)c(NCc3ccc(C)cc3N(C)S(C)(=O)=O)n2)ccc1NC(C)=O [Example 103]	2 nM	0.8 nM
CC(=O)Nc1ccc(Nc2ncc(C(F)(F)F)c(NCc3ccc(C)cc3N(C)S(C)(=O)=O)n2)cc1Cl [Example 104]	2 nM	2 nM
COc1ccc(CNc2nc(Nc3ccc(NC(C)=O)c(Cl)c3)ncc2C(F)(F)F)c(N(C)S(C)(=O)=O)c1 [Example 105]	2 nM	2 nM
COc1cc(C(=O)N[C@@H]2CCN(C)C[C@@H]2F)ccc1Nc1ncc(C(F)(F)F)c(NCc2ccc(C)cc2N(C)S(C)(=O)=O)n1 [Example 106]	2 nM	4 nM
COc1cc(C(=O)NC2CCC(N3CCN(CC4CC4)CC3)CC2)c(C)cc1Nc1ncc(C(F)(F)F)c(NCc2ccc(C)cc2N(C)S(C)(=O)=O)n1 (stereo not shown) [Example 107]	2 nM	4 nM
COc1cc(C(=O)N(C)C2CCN(C)CC2)ccc1Nc1ncc(C(F)(F)F)c(NCc2ccc(C)cc2N(C)S(C)(=O)=O)n1 [Example 108]	2 nM	2 nM

Structure (SMILES)	EC50 [1]	IC50 [2]
COc1cc(CNC2CCCCC2)ccc1Nc1ncc(C(F)(F)F)c(NCc2ccc(C)cc2N(C)S(C)(=O)=O)n1 [Example 109]	2 nM	2 nM
COc1cc(C(=O)NC2CCN(C)CC2)ccc1Nc1ncc(C(F)(F)F)c(NCc2ccc(Cl)cc2N(C)S(C)(=O)=O)n1 [Example 111]	3 nM	1 nM
COc1cc(N2CCN(C3CCN(C)CC3)CC2)ccc1Nc1ncc(C(F)(F)F)c(NCc2ccc(C)cc2N(C)S(C)(=O)=O)n1 [Example 112]	3 nM	2 nM
COc1cc(C(=O)NC(C)(C)C)c(F)cc1Nc1ncc(C(F)(F)F)c(NCc2ccc(C)cc2N(C)S(C)(=O)=O)n1 [Example 113]	3 nM	5 nM
COc1cc(C(=O)N[C@H]2CC[C@H](N3C[C@@H](C)O[C@@H](C)C3)CC2)ccc1Nc1ncc(C(F)(F)F)c(NCc2ccc(C)cc2N(C)S(C)(=O)=O)n1 [Example 114]	3 nM	4 nM
CCCNC(=O)c1ccc(Nc2ncc(C(F)(F)F)c(NCc3ccc(F)cc3N(C)S(C)(=O)=O)n2)c(OC)c1 [Example 115]	3 nM	5 nM
COc1cc(C(=O)N[C@@H]2CCCN(C3COC3)C2)ccc1Nc1ncc(C(F)(F)F)c(NCc2ccc(C)cc2N(C)S(C)(=O)=O)n1 [Example 116]	3 nM	3 nM
CC(=O)Nc1ccc(Nc2ncc(C(F)(F)F)c(NCc3ccc(C)cc3N(C)S(C)(=O)=O)n2)cc1C [Example 117]	3 nM	0.85 nM
COc1ccc(CNc2nc(Nc3ccc(NC(C)=O)c(C)c3)ncc2C(F)(F)F)c(N(C)S(C)(=O)=O)c1 [Example 118]	3 nM	1 nM
COc1cc(C(=O)N[C@H]2CCN(C)C[C@H]2F)ccc1Nc1ncc(C(F)(F)F)c(NCc2ccc(C)cc2N(C)S(C)(=O)=O)n1 [Example 119]	3 nM	3 nM
COc1cc(C(=O)N[C@H]2CCN(C)C2)c(Cl)cc1Nc1ncc(C(F)(F)F)c(NCc2ccc(C)cc2N(C)S(C)(=O)=O)n1 [Example 120]	3 nM	3 nM
CCc1cc(C(=O)NC)ccc1Nc1ncc(C(F)(F)F)c(NCc2ccc(C)cc2N(C)S(C)(=O)=O)n1 [Example 121]	3 nM	2 nM
CCc1cc(C(=O)NOC)ccc1Nc1ncc(C(F)(F)F)c(NCc2ccc(C)cc2N(C)S(C)(=O)=O)n1 [Example 122]	3 nM	2 nM
COc1cc(C(=O)N(C)C)c(C)cc1Nc1ncc(C(F)(F)F)c(NCc2ccc(C)cc2N(C)S(C)(=O)=O)n1 [Example 123]	3 nM	9 nM
COC(=O)Nc1cc(OC)c(Nc2ncc(C(F)(F)F)c(NCc3ccc(C)cc3N(C)S(C)(=O)=O)n2)cc1C [Example 124]	3 nM	5 nM
COC(=O)Nc1cc(OC)c(Nc2ncc(C(F)(F)F)c(NCc3ccc(OC)cc3N(C)S(C)(=O)=O)n2)cc1C [Example 125]	3 nM	5 nM
COC(=O)Nc1cc(OC)c(Nc2ncc(C(F)(F)F)c(NCc3ccc(F)cc3N(C)S(C)(=O)=O)n2)cc1C [Example 126]	3 nM	6 nM
